Test results published in PMC7490411 (Signal Transduction and Targeted Therapy, 2020).

How the values were obtained:
Test in all cases: KINOMEscan
Type in all cases: binding
Conditions in all cases: 1000 nM
[1] = system: ABL1(Q252H)-nonphosphorylated
BLK = molecular target: T1, BLK (Homo sapiens, UniProt P51451)
T1 construct: purchased Invitrogen (Carlsbad, CA, USA)

BMPR2 = system: BMPR2
BRK = system: BRK
BTK = molecular target: T2, BTK (Homo sapiens, UniProt Q06187)
T2 construct: purchased Invitrogen (Carlsbad, CA, USA)

CAMK2B = system: CAMK2B
CDC2L1 = system: CDC2L1
CDK2 = system: CDK2
CLK2 = system: CLK2
CSNK2A2 = system: CSNK2A2
DAPK2 = system: DAPK2
DMPK2 = system: DMPK2
EGFR(L858R) = system: EGFR(L858R)
EPHA1 = system: EPHA1
EPHA5 = system: EPHA5
EPHA7 = system: EPHA7
EPHA8 = system: EPHA8
ERK2 = system: ERK2
ERK4 = system: ERK4
FER = system: FER
FGFR4 = system: FGFR4
FGR = system: FGR
FLT3(D835V) = system: FLT3(D835V)
GRK7 = system: GRK7
GSK3A = system: GSK3A
HIPK1 = system: HIPK1
IRAK3 = system: IRAK3
KIT(V559D) = system: KIT(V559D)
LATS2 = system: LATS2
MAP4K5 = system: MAP4K5
MEK6 = system: MEK6
MET(Y1235D) = system: MET(Y1235D)
MKNK2 = system: MKNK2
MLK2 = system: MLK2
MST1R = system: MST1R
MST3 = system: MST3
MTOR = system: MTOR
NEK11 = system: NEK11
NEK9 = system: NEK9
p38-gamma = system: p38-gamma
PIK3C2G = system: PIK3C2G
PIK3CA(E545A) = system: PIK3CA(E545A)
PIK3CD = system: PIK3CD
PIP5K2B = system: PIP5K2B
PKAC-beta = system: PKAC-beta
RET(M918T) = system: RET(M918T)
RET(V804M) = system: RET(V804M)
RIOK3 = system: RIOK3
[2] = system: RSK2(Kin.Dom.1-N-terminal)
STK16 = system: STK16
TAOK1 = system: TAOK1
TLK2 = system: TLK2
TNNI3K = system: TNNI3K
TRKA = system: TRKA
TTK = system: TTK
ULK1 = system: ULK1
WNK1 = system: WNK1
WNK3 = system: WNK3
YANK2 = system: YANK2

T1 sequence (P51451 whole entry): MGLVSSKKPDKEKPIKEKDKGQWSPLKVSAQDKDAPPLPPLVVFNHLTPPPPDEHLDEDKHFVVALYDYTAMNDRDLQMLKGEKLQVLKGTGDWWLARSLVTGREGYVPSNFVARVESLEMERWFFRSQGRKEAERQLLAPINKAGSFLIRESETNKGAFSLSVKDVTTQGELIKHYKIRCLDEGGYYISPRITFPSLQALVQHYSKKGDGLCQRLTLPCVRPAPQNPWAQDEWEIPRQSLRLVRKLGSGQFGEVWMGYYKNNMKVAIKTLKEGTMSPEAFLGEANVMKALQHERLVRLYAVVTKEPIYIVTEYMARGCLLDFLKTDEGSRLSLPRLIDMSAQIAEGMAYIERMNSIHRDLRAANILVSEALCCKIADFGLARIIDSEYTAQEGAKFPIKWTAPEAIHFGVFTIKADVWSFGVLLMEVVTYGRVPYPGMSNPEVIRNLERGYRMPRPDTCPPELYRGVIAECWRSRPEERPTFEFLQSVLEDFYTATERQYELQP
T2 sequence (Q06187 whole entry): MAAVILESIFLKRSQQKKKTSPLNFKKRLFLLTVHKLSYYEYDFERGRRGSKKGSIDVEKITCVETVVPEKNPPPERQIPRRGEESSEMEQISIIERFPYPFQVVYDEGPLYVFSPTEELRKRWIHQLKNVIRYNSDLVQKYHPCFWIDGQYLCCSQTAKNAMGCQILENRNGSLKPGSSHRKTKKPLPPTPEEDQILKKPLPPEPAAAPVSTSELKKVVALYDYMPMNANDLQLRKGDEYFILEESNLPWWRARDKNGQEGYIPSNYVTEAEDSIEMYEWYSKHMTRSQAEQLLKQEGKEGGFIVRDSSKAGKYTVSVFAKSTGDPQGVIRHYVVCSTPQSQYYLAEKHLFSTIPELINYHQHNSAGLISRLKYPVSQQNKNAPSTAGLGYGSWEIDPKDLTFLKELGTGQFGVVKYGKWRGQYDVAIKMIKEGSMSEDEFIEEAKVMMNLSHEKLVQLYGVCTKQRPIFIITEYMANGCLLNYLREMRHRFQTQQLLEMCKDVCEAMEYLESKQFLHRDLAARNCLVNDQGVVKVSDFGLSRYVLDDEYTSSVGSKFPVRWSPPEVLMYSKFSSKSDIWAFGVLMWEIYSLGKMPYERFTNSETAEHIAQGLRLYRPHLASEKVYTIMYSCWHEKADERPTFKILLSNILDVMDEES

C=CC(=O)Nc1cc(Nc2cc(-c3cccc(NC(=O)c4cc5c(s4)CCCC5)c3C)cn(C)c2=O)ccc1N1CCN(CC)CC1 [CHMFL-BTK-85]
Percent Control [1]: 84% | percent of control kinase binding at 1 µM (BLK): 57% | Percent Control (BMPR2): 100% | Percent Control (BRK): 21% | percent of control binding at 1 µM (BTK): 0.9% | Percent Control (CAMK2B): 100% | Percent Control (CDC2L1): 100% | Percent Control (CDK2): 85% | Percent Control (CLK2): 84% | Percent Control (CSNK2A2): 98% | Percent Control (DAPK2): 100% | Percent Control (DMPK2): 100% | Percent Control (EGFR(L858R)): 59% | Percent Control (EPHA1): 90% | Percent Control (EPHA5): 100% | Percent Control (EPHA7): 100% | Percent Control (EPHA8): 91% | Percent Control (ERK2): 91% | Percent Control (ERK4): 100% | Percent Control (FER): 83% | Percent Control (FGFR4): 92% | Percent Control (FGR): 20% | Percent Control (FLT3(D835V)): 11% | Percent Control (GRK7): 100% | Percent Control (GSK3A): 94% | Percent Control (HIPK1): 75% | Percent Control (IRAK3): 100% | Percent Control (KIT(V559D)): 79% | Percent Control (LATS2): 100% | Percent Control (MAP4K5): 100% | Percent Control (MEK6): 78% | Percent Control (MET(Y1235D)): 97% | Percent Control (MKNK2): 100% | Percent Control (MLK2): 90% | Percent Control (MST1R): 98% | Percent Control (MST3): 66% | Percent Control (MTOR): 100% | Percent Control (NEK11): 100% | Percent Control (NEK9): 100% | Percent Control (p38-gamma): 62% | Percent Control (PIK3C2G): 63% | Percent Control (PIK3CA(E545A)): 65% | Percent Control (PIK3CD): 100% | Percent Control (PIP5K2B): 100% | Percent Control (PKAC-beta): 80% | Percent Control (RET(M918T)): 78% | Percent Control (RET(V804M)): 68% | Percent Control (RIOK3): 100% | Percent Control [2]: 100% | Percent Control (STK16): 68% | Percent Control (TAOK1): 94% | Percent Control (TLK2): 100% | Percent Control (TNNI3K): 93% | Percent Control (TRKA): 86% | Percent Control (TTK): 54% | Percent Control (ULK1): 100% | Percent Control (WNK1): 100% | Percent Control (WNK3): 100% | Percent Control (YANK2): 77%
